# Values of other authors, collected in PMC11477967, “Review of the Structural Characteristics and Biological Activities of Tricholoma Secondary Metabolites (2018–2023)” (Molecules, 2024).
# How the values were obtained:
# [1] = tested on: nitric oxide (NO) production in lipopolysaccharide (LPS)-induced RAW264.7 macrophages; conditions: for Bioactivities: Anti-inflammatory activity: Table 1 summary; for IC50: LPS-induced RAW264.7 macrophages
# human tumor cell lines = tested on: human tumor cell lines; design: method as in PMID 29758519, PMID 32534274, PMID 26186257; conditions: Table 1 summary
# bacteria = tested on: bacteria; design: method as in PMID 32534274, PMID 26186257, PMID 34604687, PMID 28794307; conditions: Table 1 summary
SMILES,Bioactivities: Anti-inflammatory activity [1],Bioactivities: Anti-cancer activity (human tumor cell lines),further results
"COC(=O)C(NC(=O)CC(C)(O)CC(=O)OC1CC2(C)C3=C(CCC2C(C)(C)C1O)C1(C)CCC(C(C)CCC(O)C(C)(C)O)C1(C)C(O)C3)C(OC(C)=O)c1ccccc1 (stereo not drawn) [Compound 5, pardinol E]",Anti-inflammatory activity,Anti-cancer activity,–
"COC(=O)C(NC(=O)CC(C)(O)CC(=O)OC1C(O)CC2(C)C3=C(CCC2C1(C)C)C1(C)CCC(C(C)CCC(O)C(C)(C)O)C1(C)C(O)C3)C(OC(C)=O)c1ccccc1 (stereo not drawn) [Compound 6, pardinol F]",Anti-inflammatory activity,Anti-cancer activity,–
"COC(=O)C(NC(=O)CC(C)(O)CC(=O)OC1C(O)CC2(C)C3=C(CCC2C1(C)C)C1(C)CCC(C2CCC(C(C)(C)O)OC2O)C1(C)C(O)C3)C(O)c1ccccc1 (stereo not drawn) [Compound 7, pardinol G]",Anti-inflammatory activity,Anti-cancer activity,–
"COC(=O)C(NC(=O)CC(C)(O)CC(=O)OC1C(O)CC2(C)C3=C(CCC2C1(C)C)C1(C)CCC(C2CCC(C(C)(C)O)OC2O)C1(C)C(O)C3)C(OC(C)=O)c1ccccc1 (stereo not drawn) [Compound 8, pardinol H]",Anti-inflammatory activity,Anti-cancer activity,–
"C=C(CCC(C)C1CCC2(C)C3=C(CC(O)C12C)C1(C)CCC(OC(=O)CC(=O)OC)C(C)(C)C1CC3)C(C)C(=O)O [Compound 16, (25S)-(+)-12α-hydroxy-3α-methylcarboxyacetate-24-methyllanosta-8,24(31)-diene-26-oic acid]",–,Anti-cancer activity,–
"CC(C)[C@@H](C)/C=C/[C@@H](C)[C@H]1CC(=O)[C@H]2C3=C(CC[C@@]21C)[C@@]1(C)CC[C@H](O)CC1=CC3=O [Compound 29, 3β-hydroxyl-(22E,24R)-ergosta-5,8,22-trien-7,15-dione]",–,Anti-cancer activity,IC50 (HL-60): < 10 µM
"CC(C)[C@@H](C)/C=C/[C@@H](C)[C@H]1CC[C@H]2C3=C(CC[C@]12C)[C@@]1(C)CC[C@H](O)CC1=CC3=O [Compound 30, 3β-hydroxyl-(22E,24R)-ergosta-5,8,22-trien-7-one]",–,Anti-cancer activity,IC50 (HL-60): < 10 µM
"CC(C)[C@@H](C)/C=C/[C@@H](C)[C@H]1CC(=O)C2=C3C(=O)C=C4C[C@@H](O)CC[C@]4(C)[C@H]3CC[C@@]21C [Compound 34, 3β-hydroxyl-(22E,24R)-ergosta-5,8(14),22-trien-7,15-dione]",–,Anti-cancer activity,–
"CC(C)[C@@H](C)/C=C/[C@@H](C)[C@H]1CC[C@H]2C3=C(CC[C@]12C)[C@@]1(C)CC[C@H](O)C[C@@]12O[C@H]2[C@@H]3O [Compound 35, 5α,6α-epoxy-(22E,24R)-ergosta-8,22-diene-3β,7β-diol]",–,Anti-cancer activity,–
"CC(C)[C@@H](C)/C=C/[C@@H](C)[C@@H](CC(=O)O)[C@@]1(C)CCC2=C(C1=O)[C@H](O)[C@@H]1O[C@@]13C[C@@H](O)CC[C@]23C [Compound 46, tricholosterol A]",Anti-inflammatory activity,–,IC50 [1]: 27.6 µM
"CC(C=CC(C)(O)C1CC(O)C2C3=CC(=O)OC3=CCC21C)C(C)(C)O (stereo not drawn) [Compound 49, tricholosterol D]",Anti-inflammatory activity,–,IC50 [1]: 31.8 µM
"C=C1CC[C@@H](CCO)C(C)(C)[C@H]1C/C=C1/C(=O)OC[C@@H]1O [Compound 70, tricholopardin B]",Anti-inflammatory activity,–,IC50 [1]: 16.2 µM
"CCC1(O)OCC(N2C(=O)CCC2OC)C2=C1C(OC)CC2OC(=O)CC(C)C (stereo not drawn) [Compound 84, pardinumone A]",–,–,Bioactivities: Antibacterial activity (bacteria): Antibacterial activity
"CCC1(O)OCC(N2C(=O)CCC2OC)C2=C1C(OC)CC2OC(=O)CC(C)C (stereo not drawn) [Compound 85, pardinumone B]",–,–,Bioactivities: Antibacterial activity (bacteria): Antibacterial activity
"CC=C1OCC(NC(=O)CCC(N)C(=O)O)C2=C1C(OC)CC2OC(=O)CC(C)C (stereo not drawn) [Compound 86, pardinumone C]",–,–,Bioactivities: Antibacterial activity (bacteria): Antibacterial activity
